Data from patent US9611265B2, “Tropomyosin-related kinase (TRK) inhibitors” (Genzyme Corporation, priority 2013, dated 2017).

Experiments:
[1] = test system: PGPS Knee Arthritis; assay: Reactivated Peptidoglycan-Polysaccharide Knee Arthritis; format: in vivo, Male Lewis rats; details: for gait scores and deficiency, first reactivation: days 1-4
Excerpt: Male Lewis rats were acclimated to the testing facility for 7 days. The rats were housed in 5 per cage in shoe-box polycarbonate cages with wire tops, wood chip bedding and suspended food and water bottles. On day −21, the male Lewis rats were randomized into treatment groups by body weight. The rats were anesthetized and injected with peptidoglycan-polysaccharide (PGPS) into the right knee to induce PGPS arthritis. Arthritis was reactivated on days 0 and 14 by an IV tail injection of PGPS. […] Gait analysis was performed by applying ink to the ventral surface of the foot and documenting weight bearing during movement across paper. […] Right knees were removed, trimmed of extraneous tissue, and collected into 10% neutral buffered formalin. After two days in the formalin buffer and three days in 10% formic acid decalcifier, the knees were cut into two approximately equal halves in the frontal plane and processed for paraffin embedding and stained with T.Blue. Histological examinations were subsequently performed for bone resorption, inflammation, pannus and cartilage damage. […] Gait scores were analyzed using a Kruskal-Wallis test (non-parametric ANOVA) with Dunn's multiple comparison post-test. Histopathology scores were analyzed using a Kruskal-Wallis test (non-parametric ANOVA) with Dunn's multiple comparison post-test.

[2] = test system: Monosodium Lodoacetate Induced Osteoarthritis; assay: Monosodium Iodoacetate Induced Osteoarthritis, weight bearing; format: in vivo, Male Wistar rats; details: for comparison with MIA/LRS at day 35: day 35, p<0.05
Excerpt: Male Wistar rats were acclimated to the testing facility for 5 days. The rats were individually housed in micro-isolator shoe-box polycarbonate cages with cob bedding and water bottles. Dry pelleted food of known composition and nutritional components was provided ad libitum Animals were randomized by treatment type using an online random number generator. Each treatment group was assigned a number, entered into the random number generator, recorded then translated back to the associated treatment. All injections were given in the left leg unless the treatment indicated “Contralateral” in which case the injection was given in the right leg. Both legs were shaved on all animals at the time of the treatment injections to blind the test administrator. The rats were weighed the day prior to injection with monosodium iodoacetate (MIA), the agent used to induce osteoarthritis in the animals. The day of injection, rats from groups 2-8 received a subcutaneous (SC) dose of buprenorphine at least one hour prior to induction. […] Naïve animals were then placed in recovery. All other animals received an injection of MIA. In animals receiving MIA, the hind leg was flexed and an injection of MIA (25 μL) was injected into the intra-articular space using a 27 gauge ½ inch needle. Standard postoperative care was performed (twice daily for 48 hours). On Day 8 the test article was administered as described above. On Days −1, 7, 14, 21, 28, and 35 post-induction, weight bearing was assessed. A weight bearing scale was utilized using a plexiglass chamber to assess the amount of weight distributed in each hind limb. The animals were acclimated to the chamber for at least 5 minutes prior to testing and the weight distribution was recorded 5 times. The animals were terminated at day 36. Both stifles were collected from each animal; the skin was removed from the joint and the patella was removed while leaving as much of the fat pad intact with the joint. The stifle was placed in the appropriate cassette with rolled gauze to secure the stifle in the cassette and then placed into 4% Paraformaldehyde. These samples were examined histologically.

[3] = Triamcinolone 0.06 mg intra-articular
[4] = intra-articular on day -7 (Triamcinolone 0.06 mg; test compound 1 mg)

| SMILES | reduction of gait scores and deficiency AUC, each reactivation calculated separately [1, 3] | reduction of gait scores and deficiency AUC, summed [1, 3] | knee caliper measurements [1, 4] | reduction in knee caliper AUC [1, 4] | gait scores and deficiency, first reactivation [1, 4] | reduction of AUC for scores and deficiency, first reactivation ([1]; 1 mg intra-articular) | reduction of AUC for scores and deficiency, second reactivation ([1]; 1 mg intra-articular) | reduction of summed AUC for deficiency ([1]; 1 mg intra-articular) [%] | histopathology, reductions in all parameters ([1]; day 18, bone resorption, inflammation, pannus, cartilage damage (Triamcinolone 0.06 mg; test compound 1 mg)) | gait scores and deficiency, second reactivation ([1]; intra-articular on day -7 (Triamcinolone 0.06 mg; test compound 1 mg), days 15-18) | weight bearing efficacy ([2]; 10 μg Contralateral) | weight bearing efficacy ([2]; 10 μg Ipsilateral, intra-articular on Day 8) | weight bearing efficacy ([2]; 30 μg Contralateral) | comparison with MIA/LRS at day 35 ([2]; 30 μg Ipsilateral) | weight bearing efficacy ([2]; 30 μg Ipsilateral, intra-articular on Day 8) | systemic pain relief (weight bearing) ([2]; 100 μg Contralateral, 1-4 weeks) | comparison with MIA/LRS at day 35 ([2]; 100 μg Ipsilateral) | weight bearing efficacy ([2]; 100 μg Ipsilateral, intra-articular on Day 8) | body weight results ([2]; 10-100 μg intra-articular) | histopathology of the knee joint ([2]; day 36) |
| --- | --- | --- | --- | --- | --- | --- | --- | --- | --- | --- | --- | --- | --- | --- | --- | --- | --- | --- | --- | --- |
| C[C@]12C=CC(=O)C=C1CC[C@H]1[C@@H]3C[C@@H](O)[C@](O)(C(=O)CO)[C@@]3(C)C[C@H](O)[C@@]12F [Triamcinolone, reference compound] | 74-99% | 88-92% | significantly reduced on days 2, 4, 16, and 18 | 53-106% | significantly reduced gait scores and deficiency throughout the first reactivation (days 1-4) | – | – | – | – | – | – | – | – | – | – | – | – | – | – | – |
| COc1ccc(COc2ccc(Cn3c(N)nc4cc(-c5cnn(C)c5)cnc43)cc2OC)cc1 [Ex. 3-15, 3-(3-Methoxy-4-((4-methoxybenzyl)oxy)benzyl)-6-(1-methyl-1H-pyrazol-4-yl)-3H-imidazo[4,5-b]pyridin-2-amine] | – | – | significantly reduced on day 14 | generally unaffected by treatment | significant reductions in gait scores and deficiency throughout the first reactivation | 92-93% | 85-86% | 84 | 49-94% | Scores were significantly reduced throughout the second reactivation, and reductions in deficiency were significant on days 15, 17, and 18 | efficacy at 3 and 4 weeks following administration | efficacy was observed at 2 through 4 weeks following administration | efficacy at only the 3 week timepoint | MIA/LRS was significantly worse | effective throughout the four weeks following administration | did not show systemic pain relief at any timepoint | MIA/LRS was significantly worse | effective throughout the four weeks following administration | No adverse observations | no adverse changes |
